Source: ChEMBL document CHEMBL1151766, “Engineering stabilized vascular endothelial growth factor-A antagonists: synthesis, structural characterization, and bioactivity of grafted analogues of cyclotides” (J Med Chem, 2008)

Tests used:
BaF3 = experiment: Cytotoxicity against VEGF-A induced mouse BAF3-VEGF-R2 cells at >10 uM; assay type: functional, cell-based
[1] = Toxicity in human erythrocytes assessed as hemolytic activity at 50 uM; assay type: cell-based, Erythrocyte; conditions: read-out: Activity

Structure (SMILES)	Activity (BaF3)	hemolysis at 50 µM [1]
CC(C)C[C@@H]1NC(=O)CNC(=O)[C@H](CC(N)=O)NC(=O)[C@H](CCCNC(=N)N)NC(=O)[C@H]([C@@H](C)O)NC(=O)[C@H](CS)NC(=O)[C@H](C(C)C)NC(=O)[C@@H]2CCCN2C(=O)[C@H](CCC(=O)O)NC(=O)[C@H](CO)NC(=O)[C@H](CS)NC(=O)[C@H]([C@@H](C)O)NC(=O)[C@H](CS)NC(=O)CNC(=O)[C@@H]2CCCN2C(=O)[C@H]([C@@H](C)O)NC(=O)[C@H](CC(N)=O)NC(=O)[C@H](CS)NC(=O)[C@H]([C@@H](C)O)NC(=O)CNC(=O)CNC(=O)[C@H](C(C)C)NC(=O)[C@H](CS)NC(=O)[C@H]([C@@H](C)O)NC(=O)[C@H](CCC(=O)O)NC(=O)CNC(=O)[C@H](CS)NC(=O)[C@H](C(C)C)NC(=O)[C@@H]2CCCN2C1=O	Toxic	
CC(C)C[C@@H]1NC(=O)CNC(=O)[C@H](CC(N)=O)NC(=O)[C@H](CCCNC(=N)N)NC(=O)[C@H]([C@@H](C)O)NC(=O)[C@@H]2CSSC[C@@H]3NC(=O)[C@H]([C@@H](C)O)NC(=O)CNC(=O)CNC(=O)[C@H](C(C)C)NC(=O)[C@@H]4CSSC[C@H](NC(=O)[C@H]([C@@H](C)O)NC(=O)[C@H](CSSC[C@H](NC(=O)[C@H](C(C)C)NC(=O)[C@@H]5CCCN5C1=O)C(=O)NCC(=O)N[C@@H](CCC(=O)O)C(=O)N[C@@H]([C@@H](C)O)C(=O)N4)NC(=O)CNC(=O)[C@@H]1CCCN1C(=O)[C@H]([C@@H](C)O)NC(=O)[C@H](CC(N)=O)NC3=O)C(=O)N[C@@H](CO)C(=O)N[C@@H](Cc1c[nH]c3ccccc13)C(=O)N1CCC[C@H]1C(=O)N[C@@H](C(C)C)C(=O)N2 [KALATA B1]		50%
